In article PMC5554137, “Evaluation of novel factor Xa inhibitors from Oxya chinensis sinuosa with anti-platelet aggregation activity” (Scientific Reports, 2017):

What was measured:
HUVECs = assay: Production of factor Xa on the surface of TNF-α-stimulated HUVECs; type: cell-based, human; details: 10 min pre-incubation
Procedure: (§1) Figure 6 Effects of compounds 1–4 on inhibition and production of FXa. […] The plots represent means of three independent measurements. (E) Human umbilical vein endothelial cells (HUVECs) were pre-incubated with the indicated concentration of each compound for 10 min. HUVECs stimulated with tumor necrosis factor-α (TNF-α, 10 ng/mL for 6 h) were incubated with FVIIa (10 nM) and FX (175 nM) in the absence or presence of anti-TF IgG (25 µg/mL). FXa production was determined as described in the “ Supplementary Materials and Methods” section. D = 0.2% DMSO used as the vehicle control. (F) Inhibition of FXa by each compound (5 μM) with or without TFPI (2 nM) was monitored using a chromogenic assay. ^* p < 0.05 vs. TNF-α alone (E) or each compound (F) alone, analyzed via one-way ANOVA, followed by Tukey multiple comparison testing.
Production of FXa by FVIIa is dependent on tissue factor (TF) expression in tumor necrosis factor-α (TNF-α)-stimulated HUVECs[22]. Thus, we investigated the effects of compounds 1–4 on the production of FXa by FVIIa. HUVECs were stimulated with TNF-α to induce TF expression, causing an 11.9-fold increase in the rate of FX production by FVIIa (109.4 ± 9.2 nM) over that of non-stimulated HUVECs (9.2 ± 0.8 nM). […] We next determined whether each compound compete with tissue factor pathway inhibitor (TFPI) in the inhibition of FXa. […]

Trypsin = assay: Chromogenic substrate assay, Ki determination, Trypsin; type: biochemical, human
Procedure: (§2) The inhibitor (I) constants (Ki) were determined for the inhibition of a series of human enzymes (FXa, thrombin, trypsin, plasmin, protein Ca, streptokinase, tPA, and urokinase) by each compound. Chromogenic substrate assays were performed using a Labsystems IEMS (Cergy Pontoise, France) microtiter plate reader. In each assay, the compound was tested at a minimum of seven concentrations in duplicate to obtain an inhibition curve. Assays were performed according to the following general procedure. In a 96-well microtiter plate, 25 μL of compound, inhibitor solution or buffer was added to 50 μL of substrate. A volume of 25 μL of enzyme solution was added just before the plate was placed in the microtiter plate reader for 1 h at 37 °C. The hydrolysis of the substrate yields p-nitroaniline, which was continuously monitored spectrophotometrically at 405 nm. Data were collected and the initial rate of substrate hydrolysis [Vo (mOD/minute)] was calculated. Following Michaelis-Menten kinetics, the affinity of the enzyme for the substrate, in the absence of the inhibitor (Km) and in the presence of an inhibitor (Kp), was determined to be the negative inverse x-intercept of Lineweaver–Burk plots. The dissociation constant for inhibition (Ki) was calculated using the following equation: Ki = (Km·[I])/(Kp − Km) as described by Williams and Morrison[40].

α-Thrombin = molecular target: T1, α-Thrombin (Homo sapiens, UniProt P00734); assay: Chromogenic substrate assay, Ki determination, α-Thrombin; type: biochemical
T1 construct: FXa converts prothrombin to thrombin; purchased Haematologic Technologies (Essex Junction, VT, USA)
Procedure: as §2

Plasmin = Plasmin (Homo sapiens, UniProt P00747); assay: Chromogenic substrate assay, Ki determination, Plasmin; type: biochemical
Procedure: as §2

Urokinase = Urokinase (Homo sapiens, UniProt P00749); assay: Chromogenic substrate assay, Ki determination, Urokinase; type: biochemical
Procedure: as §2

FXa = molecular target: T2, FXa (Homo sapiens, UniProt P00742); assay: Inhibition of amidolytic activity of FXa toward S-2222 (Michaelis-Menten, Lineweaver-Burk; with or without TFPI); type: biochemical; details: for slope of inhibition activity plot: FXa
T2 construct: purchased Haematologic Technologies (Essex Junction, VT, USA)
Procedure: To elucidate the mechanisms responsible for inhibition of coagulation and platelet aggregation by compounds 1–4, inhibition of FXa activity was determined using chromogenic substrates. […] We observed a decrease in Vmax, with no effect on the Km of FXa toward S-2222 in the presence of compound 1. […] We also observed a slope of 0.401 for the control without compound 2, and slopes of 0.442 and 0.465 for compound 2 at concentrations of 2 and 5 µM, respectively. […] We observed a decrease in Vmax, with no effect on the Km of FXa toward S-2222 in the presence of compound 2. […] Inhibition activity plots were obtained for different concentrations of compound 3, showing a slope of 0.388 for the control without compound 3, and slopes of 0.408 and 0.464 for compound 3 at concentrations of 2 and 5 µM, respectively. […] We also observed a slope of 0.363 for the control without compound 4, and slopes of 0.376 and 0.398 for compound 4 at concentrations of 2 and 5 µM, respectively. […] We observed a decrease in Vmax, with no effect on the Km of FXa toward S-2222 in the presence of compound 4.
as §1
Each compound with or without TFPI was dissolved in 50 mM Tris-HCl buffer (pH 7.4) containing 7.5 mM EDTA and 150 mM NaCl. Following a 2-min incubation at 37 °C, FXa solution (150 μL, 1 U/mL) was added, followed by incubation at 37 °C for 1 min. S-2222 (an FXa substrate, 150 μL, 1.5 mM) solution was subsequently added, and the absorbance at 405 nm was monitored for 20 min using a spectrophotometer (TECAN, Männedorf, Switzerland). The absorbance-time curve and the slope of the curve (Vi) were used to represent the activity of the enzyme. Distilled water served as a control (the slope of curve V0). The inhibitory effect was calculated according to equation (1):1 Inhibitoryrate(%)=(V0−Vi)/V0×100 where V0 represents the slope of the vehicle and Vi represents the slope of the samples.

[1] = tested on: Streptokinase (Homo sapiens); assay: Chromogenic substrate assay, Ki determination, Streptokinase; type: biochemical
Procedure: as §2

T2 sequence (P00742 235-488 limits assumed): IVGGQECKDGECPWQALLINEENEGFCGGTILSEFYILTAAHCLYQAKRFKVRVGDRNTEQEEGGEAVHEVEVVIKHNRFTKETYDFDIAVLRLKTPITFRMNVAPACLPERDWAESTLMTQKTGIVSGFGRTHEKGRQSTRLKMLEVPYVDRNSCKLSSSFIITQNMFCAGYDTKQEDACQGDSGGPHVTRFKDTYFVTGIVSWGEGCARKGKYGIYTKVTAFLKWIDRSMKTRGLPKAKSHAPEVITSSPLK
T2 sequence (P00742 41-179 limits assumed): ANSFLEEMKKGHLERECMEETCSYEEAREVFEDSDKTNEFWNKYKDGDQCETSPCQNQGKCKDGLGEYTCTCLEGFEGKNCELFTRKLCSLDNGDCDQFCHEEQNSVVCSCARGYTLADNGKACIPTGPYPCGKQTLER
Streptokinase (Homo sapiens), sequence (P00747 581-810 limits assumed): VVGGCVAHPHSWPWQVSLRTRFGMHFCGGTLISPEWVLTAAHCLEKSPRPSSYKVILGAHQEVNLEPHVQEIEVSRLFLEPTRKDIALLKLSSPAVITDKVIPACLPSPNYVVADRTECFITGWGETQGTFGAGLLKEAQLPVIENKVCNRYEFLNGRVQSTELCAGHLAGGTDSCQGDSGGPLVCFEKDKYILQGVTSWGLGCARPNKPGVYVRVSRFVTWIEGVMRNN
Plasmin, sequence (P00747 581-810 limits assumed): as above
Plasmin, sequence (P00747 97-580 limits assumed): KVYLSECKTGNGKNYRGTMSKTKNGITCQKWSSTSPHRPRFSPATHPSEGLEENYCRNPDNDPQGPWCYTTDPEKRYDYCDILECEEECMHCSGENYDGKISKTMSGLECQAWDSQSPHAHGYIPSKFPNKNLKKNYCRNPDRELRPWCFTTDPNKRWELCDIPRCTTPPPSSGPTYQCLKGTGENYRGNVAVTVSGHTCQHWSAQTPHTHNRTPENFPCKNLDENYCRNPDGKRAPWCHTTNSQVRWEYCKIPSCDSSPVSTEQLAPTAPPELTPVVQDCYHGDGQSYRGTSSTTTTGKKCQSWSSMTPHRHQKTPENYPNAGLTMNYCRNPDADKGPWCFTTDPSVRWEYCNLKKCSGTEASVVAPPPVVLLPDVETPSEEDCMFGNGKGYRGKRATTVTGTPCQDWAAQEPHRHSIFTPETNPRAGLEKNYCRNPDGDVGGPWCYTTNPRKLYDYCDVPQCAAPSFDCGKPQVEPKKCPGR

For `CC(=O)NCCc1ccc2c(c1)O[C@H](c1ccc(O)c(O)c1)[C@H](NC(C)=O)O2` [Compound 1, (2 R,3 R)-2-(3′,4′-dihydroxyphenyl)-3-acetylamino-7-(N-acetyl-2″-aminoethyl)-1,4-benzodioxane], the “inhibition of FXa production (generation) by FVIIa in HUVECs” value (HUVECs) was “strongest inhibition”, the “Ratio = Ki enzyme/Ki Factor Xa, Trypsin” value (Trypsin) was over 100 and the Ki (Trypsin; substrate S-2222) was over 300 µM. For the same molecule, the “Ratio = Ki enzyme/Ki Factor Xa, α-Thrombin” value (α-Thrombin) was over 100, the Ki (α-Thrombin; substrate S-2238) was over 300 µM and the “Ratio = Ki enzyme/Ki Factor Xa, Plasmin” value (Plasmin) was over 100. The Ki (Plasmin; substrate S-2251) was over 300 µM, the “Ratio = Ki enzyme/Ki Factor Xa, Urokinase” value (Urokinase) was over 100 and the Ki (Urokinase; substrate S-2444) was over 300 µM. For the same molecule, the “Km of FXa toward S-2222 in the presence of compound” value (FXa) was “no effect”, the “Vmax of FXa toward S-2222 in the presence of compound” value (FXa) was “decrease” and the “type of inhibition of FXa (Lineweaver-Burk plots)” value (FXa; S-2222) was “noncompetitive inhibition”. For the same molecule, the “slope of inhibition activity plot” value (FXa; compound at 2 µM, S-2222) was 0.707, the “slope of inhibition activity plot” value (FXa; compound at 5 µM, S-2222) was 0.957 and the Ki (FXa; substrate S-2222) was 2.96 µM. For the same molecule, the “Ratio = Ki enzyme/Ki Factor Xa, Streptokinase” value [1] was over 100 and the Ki ([1]; substrate S-2251) was over 300 µM.
